≈ marks a conversion by molar mass, not a printed value.
How the values were obtained:
Type in all cases: cell-based
[1] = tested on: Escherichia coli SOL 90; test: MIC, in vitro dilution method, Escherichia coli SOL 90 (Table III); settings: SOL90; Escherichia coli SOL 90; dilution method; read-out: MIC
Text: (§1) The products of the invention have been studied as regards their pharmacological properties and, more especially, bacteriostatic action. This has been determined in vitro by the dilution method, and the study was on Gram negative strains.
(§2) Results, expressed in minimum inhibiting concentrations (MIC-- μg/ml), are collected in the following table (Table III).

[2] = tested on: Citrobacter RL 49; test: MIC, in vitro dilution method, Citrobacter RL 49 (Table III); settings: RL49; Citrobacter RL 49; dilution method; read-out: MIC
Text: as §1, §2

[3] = tested on: Proteus vulgaris RL 99 bis; test: MIC, in vitro dilution method, Proteus vulgaris RL 99 bis (Table III); settings: RL99BIS; Proteus vulgaris RL 99 bis; dilution method; read-out: MIC
Text: as §1, §2

[4] = tested on: Serratia RL 72; test: MIC, in vitro dilution method, Serratia RL 72 (Table III); settings: RL72
Text: as §1, §2

[5] = tested on: Klebsiella RO 30; test: MIC, in vitro dilution method, Klebsiella RO 30 (Table III); settings: RO30; Klebsiella RO 30; dilution method; read-out: MIC
Text: as §1, §2

[6] = tested on: Enterobacter RO 154; test: MIC, in vitro dilution method, Enterobacter RO 154 (Table III); settings: RO154; Enterobacter RO 154; dilution method; read-out: MIC
Text: as §1, §2

[7] = tested on: Pseudomonas RL 112; test: MIC, in vitro dilution method, Pseudomonas RL 112 (Table III); settings: RL112
Text: as §1, §2

| Compound | MIC [1] | MIC [2] | MIC [3] | MIC [4] | MIC [5] | MIC [6] | MIC [7] |
| --- | --- | --- | --- | --- | --- | --- | --- |
| Cc1cc(C(=O)OCC2=C(C(=O)O)N3C(=O)C(NC(=O)/C(=N\OC(C)(C)C(=O)O)c4csc(N)n4)C3[S+]([O-])C2)ccc1CN (centres unmarked) [42 380] | ≤ 0.125 µg/mL | ≤ 0.125 µg/mL | ≤ 0.125 µg/mL | 1 µg/mL (≈ 1.54 µM) | ≤ 0.125 µg/mL | ≤ 0.125 µg/mL | 4 µg/mL (≈ 6.17 µM) |
| CC(ON=C(C(=O)NC1C(=O)N2C(C(=O)O)=C(CSC(=O)c3ccc(CN)cc3)C[S+]([O-])C12)c1csc(N)n1)C(=O)O (centres unmarked) [compound 42221] | 0.25 µg/mL (≈ 0.393 µM) | ≤ 0.12 µg/mL | ≤ 0.12 µg/mL | 2 µg/mL (≈ 3.14 µM) | ≤ 0.12 µg/mL | 0.25 µg/mL (≈ 0.393 µM) | 64 µg/mL (≈ 101 µM) |
| Cc1c(CN)cccc1C(=O)OCC1=C(C(=O)O)N2C(=O)C(NC(=O)C(=NOC3(C(=O)O)CCC3)c3csc(N)n3)C2[S+]([O-])C1 (centres unmarked) [42 540] | 0.25 µg/mL (≈ 0.378 µM) | 0.125 µg/mL (≈ 0.189 µM) | ≤ 0.125 µg/mL | 0.25 µg/mL (≈ 0.378 µM) | ≤ 0.125 µg/mL | ≤ 0.125 µg/mL | 4 µg/mL (≈ 6.05 µM) |
| Nc1nc(C(=NOC2(C(=O)O)CCC2)C(=O)NC2C(=O)N3C(C(=O)O)=C(CSC(=O)C4CCNCC4)C[S+]([O-])C23)cs1 (centres unmarked) [compound 42219] | 0.5 µg/mL (≈ 0.78 µM) | ≤ 0.12 µg/mL | ≤ 0.12 µg/mL | 1 µg/mL (≈ 1.56 µM) | 0.5 µg/mL (≈ 0.78 µM) | 0.5 µg/mL (≈ 0.78 µM) | 4 µg/mL (≈ 6.24 µM) |
| CC(C)C[C@H](N)C(=O)OCC1=C(C(=O)O)N2C(=O)C(NC(=O)/C(=N\OC(C)(C)C(=O)O)c3csc(N)n3)C2[S+]([O-])C1 (some centres unmarked) [41 859] | 1 µg/mL (≈ 1.63 µM) | 2 µg/mL (≈ 3.25 µM) | 0.25 µg/mL (≈ 0.407 µM) | 4 µg/mL (≈ 6.51 µM) | 0.5 µg/mL (≈ 0.813 µM) | 8 µg/mL (≈ 13 µM) | 16 µg/mL (≈ 26 µM) |
| CC(ON=C(C(=O)NC1C(=O)N2C(C(=O)O)=C(CSC(=O)C3CCNCC3)C[S+]([O-])C12)c1csc(N)n1)C(=O)O (centres unmarked) [compound 42218] | 0.5 µg/mL (≈ 0.813 µM) | 0.25 µg/mL (≈ 0.407 µM) | 0.5 µg/mL (≈ 0.813 µM) | 2 µg/mL (≈ 3.25 µM) | 0.5 µg/mL (≈ 0.813 µM) | 0.5 µg/mL (≈ 0.813 µM) | 64 µg/mL (≈ 104 µM) |
| CC(C)(O/N=C(\C(=O)NC1C(=O)N2C(C(=O)O)=C(COC(=O)CCCCCCCN)C[S+]([O-])C12)c1csc(N)n1)C(=O)O (centres unmarked) [41 856] | 0.5 µg/mL (≈ 0.778 µM) | 2 µg/mL (≈ 3.11 µM) | ≤ 0.12 µg/mL | 2 µg/mL (≈ 3.11 µM) | 0.25 µg/mL (≈ 0.389 µM) | 4 µg/mL (≈ 6.22 µM) | 16 µg/mL (≈ 24.9 µM) |
| C[C@H](N)C(=O)OCC1=C(C(=O)O)N2C(=O)C(NC(=O)/C(=N\OC(C)(C)C(=O)O)c3csc(N)n3)C2[S+]([O-])C1 (some centres unmarked) [41 733] | 2 µg/mL (≈ 3.49 µM) | 2 µg/mL (≈ 3.49 µM) | 0.5 µg/mL (≈ 0.873 µM) | 8 µg/mL (≈ 14 µM) | 1 µg/mL (≈ 1.75 µM) | 1 µg/mL (≈ 1.75 µM) | 8 µg/mL (≈ 14 µM) |
| CC(O/N=C(\C(=O)NC1C(=O)N2C(C(=O)O)=C(COC(=O)CCCCN)C[S+]([O-])C12)c1csc(N)n1)C(=O)O (centres unmarked) [42 214] | ≤ 0.12 µg/mL | ≤ 0.12 µg/mL | ≤ 0.12 µg/mL | 0.5 µg/mL (≈ 0.852 µM) | ≤ 0.12 µg/mL | ≤ 0.12 µg/mL | 16 µg/mL (≈ 27.3 µM) |
| COc1cc(C(=O)OCC2=C(C(=O)O)N3C(=O)C(NC(=O)/C(=N\OC(C)(C)C(=O)O)c4csc(N)n4)C3[S+]([O-])C2)ccc1CN (centres unmarked) [42 461] | 0.25 µg/mL (≈ 0.376 µM) | ≤ 0.125 µg/mL | ≤ 0.125 µg/mL | 2 µg/mL (≈ 3.01 µM) | ≤ 0.125 µg/mL | ≤ 0.125 µg/mL | 8 µg/mL (≈ 12 µM) |
| CC(C)[C@H](N)C(=O)OCC1=C(C(=O)O)N2C(=O)C(NC(=O)/C(=N\OC(C)(C)C(=O)O)c3csc(N)n3)C2[S+]([O-])C1 (some centres unmarked) [41 806] | 1 µg/mL (≈ 1.66 µM) | 1 µg/mL (≈ 1.66 µM) | 0.5 µg/mL (≈ 0.832 µM) | 4 µg/mL (≈ 6.66 µM) | 0.5 µg/mL (≈ 0.832 µM) | 8 µg/mL (≈ 13.3 µM) | 8 µg/mL (≈ 13.3 µM) |
| CNCc1ccc(C(=O)SCC2=C(C(=O)O)N3C(=O)C(NC(=O)C(=NOC4(C(=O)O)CCC4)c4csc(N)n4)C3[S+]([O-])C2)cc1 (centres unmarked) [compound 42534] | 0.5 µg/mL (≈ 0.739 µM) | 0.25 µg/mL (≈ 0.369 µM) | ≤ 0.125 µg/mL | 1 µg/mL (≈ 1.48 µM) | 0.25 µg/mL (≈ 0.369 µM) | 0.5 µg/mL (≈ 0.739 µM) | 8 µg/mL (≈ 11.8 µM) |
| C[C@@H](N)C(=O)OCC1=C(C(=O)O)N2C(=O)C(NC(=O)/C(=N\OC(C)(C)C(=O)O)c3csc(N)n3)C2[S+]([O-])C1 (some centres unmarked) [41 891] | 0.5 µg/mL (≈ 0.873 µM) | 0.5 µg/mL (≈ 0.873 µM) | 0.5 µg/mL (≈ 0.873 µM) | 4 µg/mL (≈ 6.99 µM) | 0.5 µg/mL (≈ 0.873 µM) | 8 µg/mL (≈ 14 µM) | 8 µg/mL (≈ 14 µM) |
| NC[C@H]1CC[C@H](C(=O)OCC2=C(C(=O)O)N3C(=O)C(NC(=O)/C(=N\OCC(=O)O)c4csc(N)n4)C3[S+]([O-])C2)CC1 (some centres unmarked) [42 211] | ≤ 0.12 µg/mL | ≤ 0.12 µg/mL | ≤ 0.12 µg/mL | ≤ 0.12 µg/mL | ≤ 0.12 µg/mL | ≤ 0.12 µg/mL | 64 µg/mL (≈ 104 µM) |
| CC(CCN)C(=O)OCC1=C(C(=O)O)N2C(=O)C(NC(=O)C(=NOC3(C(=O)O)CCC3)c3csc(N)n3)C2[S+]([O-])C1 (centres unmarked) [42 209] | 0.25 µg/mL (≈ 0.408 µM) | ≤ 0.12 µg/mL | ≤ 0.12 µg/mL | 0.5 µg/mL (≈ 0.816 µM) | 0.25 µg/mL (≈ 0.408 µM) | ≤ 0.12 µg/mL | 4 µg/mL (≈ 6.53 µM) |
| Cc1cc(C(=O)OCC2=C(C(=O)O)N3C(=O)C(NC(=O)/C(=N\OC4(C(=O)O)CCC4)c4csc(N)n4)C3[S+]([O-])C2)ccc1CN (centres unmarked) [42 463] | ≤ 0.125 µg/mL | ≤ 0.125 µg/mL | ≤ 0.125 µg/mL | 0.5 µg/mL (≈ 0.757 µM) | ≤ 0.125 µg/mL | ≤ 0.125 µg/mL | 4 µg/mL (≈ 6.05 µM) |
| NCc1cccc(C(=O)OCC2=C(C(=O)O)N3C(=O)C(NC(=O)/C(=N\OC4(C(=O)O)CCC4)c4csc(N)n4)C3[S+]([O-])C2)c1 (centres unmarked) [42 462] | 0.25 µg/mL (≈ 0.387 µM) | ≤ 0.125 µg/mL | ≤ 0.125 µg/mL | 0.5 µg/mL (≈ 0.773 µM) | ≤ 0.125 µg/mL | ≤ 0.125 µg/mL | 4 µg/mL (≈ 6.19 µM) |

Source: US4656166A, “Antibiotic compounds derived from cephalosporins, process for their production and pharmaceutical compositions” (Sanofi, priority 1983, dated 1987)
